Measured values from PubChem BioAssay AID1324 (NMMLSC, 2008).
The source made the active and inactive calls. No rule for the calls is given here.

These compounds were tested against glutathione S-transferase (GST-GSH binding) (assay: GST–glutathione interaction disruption – biochemical, multiplex beads, flow cytometry, HPSMTB buffer, profiling panel (AID 1324;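 also: glutathione beads loaded with GST-green fluorescent protein and no fluorescent Bim peptide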)). Conditions: multiplex bead flow cytometry, MCF.
For `CN(C)[C@@H]1C(=O)C(C(=O)NCN2CCCC2)=C(O)[C@@]2(O)C(=O)C3=C(O)c4c(O)cccc4[C@@](C)(O)C3CC12` (stereo partly drawn), the EC50 was “inactive”. For `COc1ccc(-n2c(=O)c3ccccc3c3ccccc3c2=O)c(OC)c1`, the EC50 was “inactive”. In the case of `CCN(CC)c1ccc(NC2=C(Cl)C(=O)c3ccccc3C2=O)cc1`, the EC50 is reported as “inactive”. For `Cc1cccc(/C=N/N(CCO)C2=NS(=O)(=O)c3ccccc32)c1`, the EC50 was “inactive”.

Same assay, conditions: multiplex bead flow cytometry, MCF, concentration not given here
In the case of `CC(C(=O)Nc1ccc([N+](=O)[O-])cc1)N1CCN(C/C=C/c2ccccc2)CC1` (stereo not drawn), the percent span inhibition is reported as “inactive”. `COc1cc(N=c2ssnc2Cl)c(OC)cc1Cl` was tested, and the percent span inhibition was “inactive”. With `O=C(Nc1ccccn1)c1cc2ccccc2o1` the percent span inhibition was “inactive”. For `Fc1ccc(C2=Nn3c(Cc4ccccc4F)nnc3SC2)cc1`, the percent span inhibition was “inactive”. For `CC(=O)OCCNc1cc(Sc2nc3ccccc3[nH]2)c2nonc2c1[N+](=O)[O-]`, the percent span inhibition was “inactive”. In the case of `CC(C)(C)NC(=O)COc1ccc(CNc2ccc3[nH]c(=O)[nH]c3c2)cc1`, the percent span inhibition is reported as “inactive”. With `Cc1ccc2c(C)c(C(=O)Nc3nnc(C)s3)oc2c1` the percent span inhibition was “inactive”. In the case of `c1ccc(C2=Nc3cccc4cccc(c34)N2)cc1`, the percent span inhibition is reported as “inactive”. `COc1cc2nc(=S)n(CCCN3CCOCC3)c(N)c2cc1OC` was tested, and the percent span inhibition was “inactive”. For `Cc1cccc(N2CCN(C(=S)Nc3ccc4nc(N5CCN(C)CC5)cc(C)c4c3)CC2)c1C`, the percent span inhibition was “inactive”. With `CNC(=O)c1sc(-c2ccccn2)nc1C` the percent span inhibition was “inactive”. `O=C(Cn1c(-c2ccccc2)noc1=O)N1CCC(Cc2ccccc2)CC1` was tested, and the percent span inhibition was “inactive”. With `Cc1cc(Cl)c(S(=O)(=O)NCC2CCCO2)cc1OCC(N)=O` (stereo not drawn) the percent span inhibition was “inactive”. `CC1Cc2ccccc2N1C(=O)CSc1nnnn1-c1ccc2c(c1)OCCO2` (stereo not drawn) was tested, and the percent span inhibition was “inactive”. `COc1ccc(-n2c(NC(=O)c3ccco3)c(C#N)c3nc4ccccc4nc32)cc1` was tested, and the percent span inhibition was “inactive”. With `COc1c(F)c(F)c(C(=O)Nc2ccccc2N2CCN(C(=O)C(C)C)CC2)c(F)c1F` the percent span inhibition was “inactive”. `COC(=O)c1cc(OC)c(OC)cc1NC(=O)Nc1cccc(C(C)=O)c1` was tested, and the percent span inhibition was “inactive”. With `CNC(=S)N/N=C/C1=CCC2CC1C2(C)C` (stereo not drawn) the percent span inhibition was “inactive”. In the case of `COc1ccc(NC(=O)c2ccco2)cc1NC(=O)c1ccco1`, the percent span inhibition is reported as “inactive”. For `Cc1cc(-c2cc(-c3ccc(Cl)cc3)nc(N)c2C#N)co1`, the percent span inhibition was “inactive”. `COc1ccc(N2C(=O)/C(=C/c3cccs3)NC2=S)cc1` was tested, and the percent span inhibition was “inactive”. In the case of `O=C(Nc1nccs1)c1ccc(COc2ccc(F)cc2)o1`, the percent span inhibition is reported as “inactive”. For `COc1ccc(N2C(=O)C(Cl)=C(Oc3cccc(OC)c3)C2=O)cc1`, the percent span inhibition was “inactive”. `CCCOc1ccc(-c2c(C(=O)N/N=C/c3ccc(OC)cc3)nnn2-c2nonc2N)cc1` was tested, and the percent span inhibition was “inactive”. With `Cc1ccc(C(=O)NNC(=O)c2ccc3ncccc3c2)cc1` the percent span inhibition was “inactive”. With `O=C1NC(=O)C2(Cc3c(nc4ccccn4c3=O)N3CCCCCC32)C(=O)N1Cc1ccccc1` (stereo not drawn) the percent span inhibition was “inactive”. In the case of `Cc1ccc(-c2cc(-c3ccc4c(c3)OCO4)c(C#N)c(N)n2)o1`, the percent span inhibition is reported as “inactive”. For `COc1cc(C2Nc3cccc4cccc(c34)N2)ccc1OC(C)=O`, the percent span inhibition was “inactive”. For `CC(=O)c1ccc2c(c1)C1C=CCC1C(c1ccncc1)N2` (stereo not drawn), the percent span inhibition was “inactive”. In the case of `O=C1N/C(=C/c2cccn2-c2ccccc2)C(=O)N1Cc1ccc(F)cc1`, the percent span inhibition is reported as “inactive”. `CCN(CC)c1ccc(NC(=O)COc2ccccc2C#N)cc1S(=O)(=O)Nc1ccccc1OC` was tested, and the percent span inhibition was “inactive”. `CCCCC(=O)Nc1ccc(C(=O)N2CCC(C(=O)OCC)CC2)cc1` was tested, and the percent span inhibition was “inactive”. In the case of `Cc1ccc(-c2c3c([nH]c(=S)c2C#N)CCCC3)o1`, the percent span inhibition is reported as “inactive”. `CNc1ccc(Br)cc(C(=O)/C=C/c2cccc(OC)c2)c1=O` was tested, and the percent span inhibition was “inactive”. `COC(=O)c1ccc(C)c(NC(=O)CCNC(=O)c2ccc([N+](=O)[O-])cc2)c1` was tested, and the percent span inhibition was “inactive”. `Cc1cc(C)c2nc3nc(C)cc(C)c3c(N)c2c1` was tested, and the percent span inhibition was “inactive”. For `COc1ccccc1Oc1ccc2c(c1)C(=O)N(c1cccc3ncccc13)C2=O`, the percent span inhibition was “inactive”. For `COc1ccccc1-n1c(-c2ccc(Cl)cc2)c[nH]c1=S`, the percent span inhibition was “inactive”. `Cn1c(=O)c(C(=O)COC(=O)c2cc(-c3ccco3)nc3ccccc23)c(N)n(CC2CC2)c1=O` was tested, and the percent span inhibition was “inactive”. With `O=C1/C(=C\c2ccco2)NC(=S)N1c1ccccc1` the percent span inhibition was “inactive”. With `C/C(=N\NC(=O)COc1ccc(C#N)cc1)c1ccccc1OC(F)F` the percent span inhibition was “inactive”. With `N#Cc1cc(-c2ccccc2)nn1-c1ccccc1` the percent span inhibition was “inactive”. For `O=C(Nc1cccc(Cl)c1)Nc1ccc(Cl)cn1`, the percent span inhibition was “inactive”. For `CCOC(=O)c1ccc(N=c2ssnc2Cl)cc1`, the percent span inhibition was “inactive”. With `COc1ccc(NC(=O)c2ccc(CN3CCN(c4ccccc4)CC3)cc2)cc1` the percent span inhibition was “inactive”. With `Cc1ccc(-c2cc(C(=O)Nc3ccccn3)c3ccccc3n2)o1` the percent span inhibition was “inactive”. With `CN(Cc1ccccc1)C(=O)c1[nH]cnc1C(=O)N[C@@H](CCCCNC(=O)OC(C)(C)C)C(=O)OC(C)(C)C` the percent span inhibition was “inactive”. In the case of `O=C(CSc1nc2ccsc2c(=O)n1Cc1ccc(C(=O)O)cc1)NCC1CCCO1` (stereo not drawn), the percent span inhibition is reported as “inactive”. `C/C(=N\NC(=O)Cc1cccn1C)c1ccc2ccccc2c1` was tested, and the percent span inhibition was “inactive”. `CC1CC2=C(NC(=S)NC2c2cccc(F)c2)/C(=C/c2cccc(F)c2)C1` (stereo not drawn) was tested, and the percent span inhibition was “inactive”. In the case of `O=C(Nc1nnc(COc2ccc(Cl)cc2)s1)c1ccco1`, the percent span inhibition is reported as “inactive”. `Cc1nc(=S)c2ccccc2[nH]1` was tested, and the percent span inhibition was “inactive”. With `Cc1ccc(C)c(N2CCN(C(=S)Nc3ccc4nc(N5CCN(C)CC5)cc(C)c4c3)CC2)c1` the percent span inhibition was “inactive”. For `COc1ccc(NC(=O)/C(C#N)=C/c2c(C)nn(-c3ccc(F)cc3)c2Cl)cc1Cl`, the percent span inhibition was “inactive”. In the case of `CC(C)Cc1cc(-c2ccco2)c(C#N)c(N)n1`, the percent span inhibition is reported as “inactive”. `O=C(NCC1CCCO1)c1ccc2c(=O)n(-c3ccc(F)cc3)c(=S)[nH]c2c1` (stereo not drawn) was tested, and the percent span inhibition was “inactive”. With `CC(=O)OCCCNc1cc(Sc2nc3ccccc3s2)c2nonc2c1[N+](=O)[O-]` the percent span inhibition was “inactive”. For `CSc1ccccc1NC(=O)CN(C)CC(=O)Nc1ccc(N2CCOCC2)cc1`, the percent span inhibition was “inactive”. `COc1ccccc1Cn1nnc2c(=O)[nH]c(C3CCN(C(=O)c4ccc(C)cc4)CC3)nc21` was tested, and the percent span inhibition was “inactive”. For `CCN(CC)c1ccc(NC(=O)c2ccccc2F)cc1S(=O)(=O)Nc1ccccc1OC`, the percent span inhibition was “inactive”. `CCn1c(SCC(=O)Nc2ccccc2-c2ccccc2)nnc1-c1ccoc1C` was tested, and the percent span inhibition was “inactive”. For `CN=c1scc(-c2cccs2)n1/N=C/c1ccc(O)c(O)c1O`, the percent span inhibition was “inactive”. In the case of `Cc1[nH]nc(SCC(=O)NCc2ccc(F)cc2)c1[N+](=O)[O-]`, the percent span inhibition is reported as “inactive”. For `Cc1ccc(NS(=O)(=O)c2cc(NC(=O)c3ccc4c(c3)NC(=O)CS4)ccc2C)c(C)c1`, the percent span inhibition was “inactive”. With `COc1ccc(OC)c(Nc2ccc(C(=O)O)cc2[N+](=O)[O-])c1` the percent span inhibition was “inactive”. `Cn1c(=O)c2c(nc(NCCO)n2CCc2ccccc2)n(C)c1=O` was tested, and the percent span inhibition was “inactive”. With `CCOc1ccccc1C(=O)NC1CC2CCCC(C1)N2C1CC1` (stereo not drawn) the percent span inhibition was “inactive”. For `C/C(=N/NC(=O)c1cc(O)c(O)c(O)c1)c1ccc([N+](=O)[O-])cc1`, the percent span inhibition was “inactive”. With `O=C(c1ccccc1NS(=O)(=O)c1ccc(Br)s1)N1CCCC1` the percent span inhibition was “inactive”. With `CN1CCS/C1=C/C=C1/SC(=S)N(Cc2ccccc2)C1=O` the percent span inhibition was “inactive”. In the case of `Cc1sc(NC(=O)Cn2cnnn2)nc1-c1ccc(Cl)cc1`, the percent span inhibition is reported as “inactive”. With `COC(=O)/C(=C/c1ccc(F)cc1)NC(C)=O` the percent span inhibition was “inactive”. `C=CCn1c(C)c(C(C)=O)c(N2CCOCC2)nc1=S` was tested, and the percent span inhibition was “inactive”. For `CCOc1ccc(N2C(=O)C(Cl)=C(Nc3ccccc3O)C2=O)cc1`, the percent span inhibition was “inactive”. `CSc1nnc2c3cc(C)ccc3n(Cc3ccccc3)c2n1` was tested, and the percent span inhibition was “inactive”. For `N#CC(C#N)=C1C=CC=CN1/C(=C\c1ccco1)C(=O)c1ccccc1`, the percent span inhibition was “inactive”. With `Cc1c(N2C(=O)c3ccc4c5c(ccc(c35)C2=O)CC4)c(=O)n(-c2ccccc2)n1C` the percent span inhibition was “inactive”. For `COC(=O)c1[nH]c2ccccc2c1NC(=O)c1ccccc1[N+](=O)[O-]`, the percent span inhibition was “inactive”. `O=C(COC(=O)CCCN=C1NS(=O)(=O)c2ccccc21)NC(=O)NC1CCCC1` was tested, and the percent span inhibition was “inactive”. With `OCCC1CN(Cc2ccc3ncccc3c2)CCN1Cc1ccccc1` (stereo not drawn) the percent span inhibition was “inactive”. With `COc1cc(/C=C2/NC(=O)N(Cc3ccccc3F)C2=O)cc(OC)c1O` the percent span inhibition was “inactive”. For `Cc1nn(-c2ccc(Cl)cc2)c(Cl)c1/C=C(\C#N)C(N)=O`, the percent span inhibition was “inactive”. With `OC(COc1ccc2ccccc2c1)CN1CCCC1` (stereo not drawn) the percent span inhibition was “inactive”. For `Cc1ccc(-n2[nH]c(C)c(/C=N/Nc3ccc([N+](=O)[O-])cc3[N+](=O)[O-])c2=O)cc1C`, the percent span inhibition was “inactive”. In the case of `COc1ccc(C(=S)N2CCCCCC2)cc1`, the percent span inhibition is reported as “inactive”. For `O=C1C(Cl)=C(N2CCN(c3ccccc3[N+](=O)[O-])CC2)C(=O)c2ccccc21`, the percent span inhibition was “inactive”. For `CC(C)n1nnnc1SCC(=O)N1CCN(C(=O)c2ccco2)CC1`, the percent span inhibition was “inactive”. For `Cc1cc(-c2csc(N)n2)c(C)n1CCC(C)C`, the percent span inhibition was “inactive”. For `COc1ccc(-n2cc(-c3ccc(OC)c(OC)c3)[nH]c2=S)cc1`, the percent span inhibition was “inactive”. `Cc1ccccc1-n1nc(SCC(=O)O)sc1=S` was tested, and the percent span inhibition was “inactive”. `CSc1nnc2ccc(-c3cccs3)nn12` was tested, and the percent span inhibition was “inactive”. `Cc1occc1C(=O)NNC(=S)NCc1ccccc1` was tested, and the percent span inhibition was “inactive”. For `O=C(C1=NN[C@@H]2C(=O)N(c3cccc(F)c3)C(=O)[C@H]12)c1ccc2ccccc2n1`, the percent span inhibition was “inactive”. In the case of `Cc1ccc(NC2=C(Cl)C(=O)c3ccccc3C2=O)cc1`, the percent span inhibition is reported as “inactive”.
